Data set [1] addresses T1, Polyunsaturated fatty acid lipoxygenase ALOX15 (Homo sapiens, UniProt P16050).
T1 sequence (P16050 whole entry): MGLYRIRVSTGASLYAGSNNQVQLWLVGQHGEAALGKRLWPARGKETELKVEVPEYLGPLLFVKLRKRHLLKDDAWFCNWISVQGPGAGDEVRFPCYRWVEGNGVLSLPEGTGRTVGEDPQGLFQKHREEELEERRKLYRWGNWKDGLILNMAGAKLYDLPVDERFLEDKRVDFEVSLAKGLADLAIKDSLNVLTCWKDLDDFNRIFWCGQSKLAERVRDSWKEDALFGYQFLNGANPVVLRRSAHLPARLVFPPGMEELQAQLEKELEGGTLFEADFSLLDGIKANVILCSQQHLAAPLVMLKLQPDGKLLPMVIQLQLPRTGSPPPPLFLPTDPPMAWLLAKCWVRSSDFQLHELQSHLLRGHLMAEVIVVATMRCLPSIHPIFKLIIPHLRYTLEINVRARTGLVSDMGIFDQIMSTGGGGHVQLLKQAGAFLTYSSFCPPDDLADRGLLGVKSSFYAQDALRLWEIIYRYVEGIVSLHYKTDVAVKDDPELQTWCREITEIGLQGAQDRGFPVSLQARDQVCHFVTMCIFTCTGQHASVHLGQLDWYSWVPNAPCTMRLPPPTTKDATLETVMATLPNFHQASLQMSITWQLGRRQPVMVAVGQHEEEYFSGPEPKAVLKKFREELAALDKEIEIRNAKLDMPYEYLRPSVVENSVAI
The data set is described as follows: Inhibition of 15-LO1 (unknown origin).

Data set [2] can be described thus: Solubility of the compound in PBS at pH 7.4 at RT. It is filed as physicochemical.
A short description of data set [3]: Solubility of the compound in DMSO at RT. The class given is physicochemical.
Data set [4] concerns the target T2, Polyunsaturated fatty acid 5-lipoxygenase (Homo sapiens, UniProt P09917).
T2 sequence (P09917 whole entry): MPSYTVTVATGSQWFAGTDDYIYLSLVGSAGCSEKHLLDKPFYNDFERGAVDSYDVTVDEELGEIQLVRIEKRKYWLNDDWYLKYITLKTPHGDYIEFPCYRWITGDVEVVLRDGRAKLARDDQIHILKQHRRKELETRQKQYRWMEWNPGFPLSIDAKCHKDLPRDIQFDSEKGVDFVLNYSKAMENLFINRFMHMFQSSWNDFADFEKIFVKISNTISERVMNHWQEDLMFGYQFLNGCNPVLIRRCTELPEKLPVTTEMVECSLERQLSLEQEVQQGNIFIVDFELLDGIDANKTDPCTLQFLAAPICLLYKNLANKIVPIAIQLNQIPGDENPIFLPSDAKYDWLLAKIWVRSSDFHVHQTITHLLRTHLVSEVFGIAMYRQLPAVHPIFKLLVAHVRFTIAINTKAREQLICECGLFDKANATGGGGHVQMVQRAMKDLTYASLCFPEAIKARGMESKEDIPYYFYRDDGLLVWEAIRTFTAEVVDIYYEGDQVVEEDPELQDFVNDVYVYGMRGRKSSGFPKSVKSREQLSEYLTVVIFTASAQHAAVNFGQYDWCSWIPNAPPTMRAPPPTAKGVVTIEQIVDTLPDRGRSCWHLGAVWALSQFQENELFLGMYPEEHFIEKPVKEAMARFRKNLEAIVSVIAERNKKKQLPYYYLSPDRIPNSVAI
The data set is described as follows: Inhibition of 5-LO in human PMNL using arachidonic acid as substrate assessed as product formation incubated for 15 mins prior to substrate addition measured after 10 mins by HPLC analysis.

Data set [5] addresses T2, Polyunsaturated fatty acid 5-lipoxygenase. Nature of the data set: Inhibition of 5-LO in human PMNL S100 extract using arachidonic acid as substrate incubated for 15 mins prior to substrate addition measured after 10 mins by HPLC analysis.
A short description of data set [6]: Cytotoxicity against human U937 cells assessed as cell viability after 48 hrs by WST-1 assay. The class given is cell-based. The following applies: U-937, 48 h. A general note: Formazan colour is commonly taken as a measure of viable cells.
In data set [7] the target is T3, Polyunsaturated fatty acid lipoxygenase ALOX12 (Homo sapiens, UniProt P18054).
T3 sequence (P18054 whole entry): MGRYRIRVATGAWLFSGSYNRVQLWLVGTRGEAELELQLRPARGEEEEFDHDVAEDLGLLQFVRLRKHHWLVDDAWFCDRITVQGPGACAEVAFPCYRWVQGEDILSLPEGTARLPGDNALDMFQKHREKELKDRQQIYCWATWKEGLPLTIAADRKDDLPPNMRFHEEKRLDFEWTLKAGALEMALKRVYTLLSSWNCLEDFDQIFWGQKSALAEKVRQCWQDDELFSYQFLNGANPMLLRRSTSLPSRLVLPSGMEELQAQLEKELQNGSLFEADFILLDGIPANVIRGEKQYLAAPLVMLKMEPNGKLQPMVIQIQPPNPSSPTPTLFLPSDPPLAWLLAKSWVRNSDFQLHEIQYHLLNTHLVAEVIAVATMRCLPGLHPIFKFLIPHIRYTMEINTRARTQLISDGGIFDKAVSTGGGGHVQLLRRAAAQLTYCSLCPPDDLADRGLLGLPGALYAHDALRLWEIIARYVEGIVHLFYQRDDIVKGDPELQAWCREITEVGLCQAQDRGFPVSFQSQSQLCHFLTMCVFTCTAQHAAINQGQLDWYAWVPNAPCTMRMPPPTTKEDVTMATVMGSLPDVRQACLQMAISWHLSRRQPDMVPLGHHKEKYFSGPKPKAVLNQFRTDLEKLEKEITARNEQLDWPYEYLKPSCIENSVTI
The data set is described as follows: Inhibition of 12-LO (unknown origin).

Data set [8] addresses T4, Polyunsaturated fatty acid 5-lipoxygenase (Homo sapiens) (UniProt P09917).
T4 sequence (whole entry): T2 sequence (P09917 whole entry)
Nature of the data set: Inhibition of 5-LO in human PMNL using arachidonic acid as substrate assessed as product formation at 1 to 10 uM incubated for 15 mins prior to substrate addition measured after 10 mins by HPLC analysis in presence of 10% fetal calf serum.

Data set [9] is described as follows: Cytotoxicity against human U937 cells at 30 uM after 48 hrs by LDH assay. The class given is cell-based. Particulars: u-937, 48 h.

A word on the IC50: it is the concentration that gives 50% inhibition. In general, solubility refers to the concentration that dissolves in the medium under given conditions. Lower therefore signals little dissolved substance.

Converted amounts (≈) assume the structure as drawn. The source made the active and inactive calls. No cut-off for these calls is given here. A value given as a limit tells only on which side of the number the result lay.

Take `COc1ccc(Cc2sc(-c3ccc(Cl)cc3)nc2O)cc1`: the IC50 in data set [1] is greater than 10000 nM; in data set [4], 140 nM; in data set [5], 30 nM; in data set [6], greater than 30000 nM; in data set [7], greater than 10000 nM. The figures for the solubility in [2] and in data set [3] were 0.08 mM (≈ 0.0265 mg/mL) and 100 mM (≈ 33.2 mg/mL), respectively. Besides, the inhibition entry in [8] was “inactive”. Besides, the Activity in data set [9] is 4.09%.

For the origin of these results see ChEMBL document CHEMBL3351894, “Development and evaluation of ST-1829 based on 5-benzylidene-2-phenylthiazolones as promising agent for anti-leukotriene therapy” (Eur J Med Chem, 2015).
